Drawing on patent publication US20140213513A1 (Sanofi, priority 2012, published 2014), this text covers EC50 for six compounds.

Structures are written as SMILES. *1 amine or outer side, *2 acyl side, *3 side chain or, on linkers, in order; H or OH if unused. Where a SMILES comes first, the peptide text is derived from it. Side-chain parts run from the residue outwards. [ ]: non-standard residue; d: D form. The star is where a group is joined. γGlu = O=C(O)[C@H](CCC(=O)[*:2])N[*:1]; Stearoyl = CCCCCCCCCCCCCCCCCC(=O)*; Palmitoyl = CCCCCCCCCCCCCCCC(=O)*; Aib = CC(C)(N)C(=O)O

Assay type in all cases: cell-based
Holding throughout (settings): Table 7; cAMP formation
In general terms: cAMP levels reflect the balance of adenylyl cyclase and phosphodiesterase activity.

Test [1] deals with T1, human GIP receptor (hGIP R) (Homo sapiens, UniProt P48546).
T1 construct: expressed in transfected cells
T1 sequence (P48546 22-466): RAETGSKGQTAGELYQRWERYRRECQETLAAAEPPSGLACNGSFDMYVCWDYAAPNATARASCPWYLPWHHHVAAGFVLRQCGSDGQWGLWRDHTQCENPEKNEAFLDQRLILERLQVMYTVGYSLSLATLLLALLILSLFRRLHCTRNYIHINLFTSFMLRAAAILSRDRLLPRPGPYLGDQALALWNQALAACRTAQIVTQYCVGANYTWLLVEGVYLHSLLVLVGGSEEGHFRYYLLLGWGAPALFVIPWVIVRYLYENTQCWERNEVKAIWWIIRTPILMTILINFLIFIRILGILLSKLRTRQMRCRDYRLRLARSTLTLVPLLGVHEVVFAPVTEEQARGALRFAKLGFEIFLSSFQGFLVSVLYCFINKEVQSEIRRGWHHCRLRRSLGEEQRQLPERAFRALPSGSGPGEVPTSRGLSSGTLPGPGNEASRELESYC
The test can be described thus: cAMP response of HEK-293 cells stably expressing human GIP receptor (HTRF). The gist of the method:
(§1)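 Stably transfected HEK-293 cells, accutase-harvested; assay buffer 1×HBSS/20 mM HEPES/0.1% BSA/2 mM IBMX; 400000 cells/ml; compound 30 min, RT; cAMP by HTRF kit.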
(In general: Time-resolved FRET reads energy transfer from a long-lived donor to a nearby acceptor.)

For test [2], the target named is T2, human GLP-1 receptor (hGLP-1 R) (Homo sapiens, UniProt P43220).
T2 construct: expressed in transfected cells
T2 sequence (P43220 24-463): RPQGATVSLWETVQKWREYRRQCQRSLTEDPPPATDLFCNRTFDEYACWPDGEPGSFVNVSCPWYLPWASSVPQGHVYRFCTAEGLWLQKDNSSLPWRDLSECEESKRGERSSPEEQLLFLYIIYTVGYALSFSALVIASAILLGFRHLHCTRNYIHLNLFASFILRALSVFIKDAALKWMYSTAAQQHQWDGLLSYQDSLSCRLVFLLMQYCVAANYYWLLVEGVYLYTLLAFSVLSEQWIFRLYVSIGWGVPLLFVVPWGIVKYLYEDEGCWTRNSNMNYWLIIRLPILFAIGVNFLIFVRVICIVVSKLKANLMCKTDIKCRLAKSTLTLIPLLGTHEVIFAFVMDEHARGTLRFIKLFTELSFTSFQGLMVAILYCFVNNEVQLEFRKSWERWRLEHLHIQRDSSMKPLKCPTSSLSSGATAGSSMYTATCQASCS
Description: cAMP response of HEK-293 cells stably expressing human GLP-1 receptor (HTRF). The procedure, abridged: as §1

The target of test [3] is T3, human glucagon receptor (hGLUC R) (Homo sapiens, UniProt P47871).
T3 construct: expressed in transfected cells
T3 sequence (P47871 26-477): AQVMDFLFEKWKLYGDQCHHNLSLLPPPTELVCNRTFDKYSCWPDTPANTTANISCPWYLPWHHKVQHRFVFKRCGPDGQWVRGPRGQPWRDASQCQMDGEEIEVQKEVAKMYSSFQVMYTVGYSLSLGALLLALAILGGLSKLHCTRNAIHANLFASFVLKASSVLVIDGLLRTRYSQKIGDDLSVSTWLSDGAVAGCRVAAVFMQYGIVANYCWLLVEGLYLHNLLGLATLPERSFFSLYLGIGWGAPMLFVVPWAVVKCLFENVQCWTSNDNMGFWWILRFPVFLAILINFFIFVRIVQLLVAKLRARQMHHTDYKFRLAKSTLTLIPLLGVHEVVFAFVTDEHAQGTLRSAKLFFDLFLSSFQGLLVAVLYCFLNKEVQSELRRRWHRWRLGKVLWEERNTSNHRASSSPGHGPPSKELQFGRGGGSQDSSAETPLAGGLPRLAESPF
Description: cAMP response of HEK-293 cells stably expressing human glucagon receptor (HTRF). The procedure, abridged:
as §1

Broadly, the EC50 is the midpoint of the concentration-response curve. The low end stands for a more potent agent, the high end for a less potent agent. In the case of `CCCCCCCCCCCCCCCCCC(=O)N[C@@H](CCC(=O)NCCCC[C@H](NC(=O)[C@H](CCC(N)=O)NC(=O)[C@H](CCCCN)NC(=O)[C@H](CO)NC(=O)[C@H](CC(C)C)NC(=O)[C@H](CC(=O)O)NC(=O)[C@H](CO)NC(=O)[C@@H](NC(=O)[C@H](Cc1ccccc1)NC(=O)[C@@H](NC(=O)CNC(=O)[C@H](CCC(N)=O)NC(=O)C(C)(C)NC(=O)[C@@H](N)Cc1ccc(O)cc1)[C@@H](C)O)[C@@H](C)O)C(=O)N[C@@H](CC(=O)O)C(=O)N[C@@H](CCC(=O)O)C(=O)N[C@@H](CCC(=O)O)C(=O)N[C@@H](C)C(=O)N[C@@H](C)C(=O)N[C@@H](CCCNC(=N)N)C(=O)N[C@@H](CC(C)C)C(=O)N[C@@H](Cc1ccccc1)C(=O)N[C@H](C(=O)N[C@@H](CCC(=O)O)C(=O)N[C@@H](Cc1c[nH]c2ccccc12)C(=O)N[C@@H](CC(C)C)C(=O)N[C@@H](CCCCN)C(=O)N[C@@H](C)C(=O)NCC(=O)NCC(=O)N1CCC[C@H]1C(=O)N[C@@H](CO)C(=O)N[C@@H](CO)C(=O)NCC(=O)N[C@@H](C)C(=O)N1CCC[C@H]1C(=O)N1CCC[C@H]1C(=O)N1CCC[C@H]1C(=O)N[C@@H](CO)C(N)=O)[C@@H](C)CC)C(=O)O` [SEQ ID NO: 60, Y-Aib-Q-G-T-F-T-S-D-L-S-K-Q-K(yE-x70)-DEEAARLFIEWLKAGGPSSGAPPPS-NH2] (H-Y[Aib]QGTFTSDLSKQK([γGlu-Stearoyl])DEEAARLFIEWLKAGGPSSGAPPPS-NH2), the EC50 in test [1] was found to be 0.0168 nM; in test [2] it was 0.0053 nM; in test [3], 0.0091 nM.

`CCCCCCCCCCCCCCCCCC(=O)N[C@@H](CCC(=O)NCCCC[C@H](NC(=O)[C@H](CCC(N)=O)NC(=O)[C@@H](NC(=O)[C@H](CO)NC(=O)[C@H](CC(C)C)NC(=O)[C@H](CC(=O)O)NC(=O)[C@H](CO)NC(=O)[C@@H](NC(=O)[C@H](Cc1ccccc1)NC(=O)[C@@H](NC(=O)CNC(=O)[C@H](Cc1c[nH]cn1)NC(=O)C(C)(C)NC(=O)[C@@H](N)Cc1ccc(O)cc1)[C@@H](C)O)[C@@H](C)O)[C@@H](C)CC)C(=O)N[C@@H](CCC(=O)O)C(=O)N[C@@H](CCCCN)C(=O)N[C@@H](CCCNC(=N)N)C(=O)N[C@@H](C)C(=O)N[C@@H](C)C(=O)N[C@@H](Cc1ccccc1)C(=O)N[C@@H](CCC(=O)O)C(=O)N[C@@H](Cc1ccccc1)C(=O)N[C@H](C(=O)N[C@@H](CCC(=O)O)C(=O)N[C@@H](Cc1c[nH]c2ccccc12)C(=O)N[C@@H](CC(C)C)C(=O)N[C@@H](CCCCN)C(=O)N[C@@H](CC(N)=O)C(=O)N[C@H](C(=O)NCC(=O)N1CCC[C@H]1C(=O)N[C@@H](CO)C(=O)N[C@@H](CO)C(=O)NCC(=O)N[C@@H](C)C(=O)N1CCC[C@H]1C(=O)N1CCC[C@H]1C(=O)N1CCC[C@H]1C(=O)N[C@@H](CO)C(N)=O)[C@@H](C)O)[C@@H](C)CC)C(=O)O` [SEQ ID NO: 32, Y-Aib-H-G-T-F-T-S-D-L-S-I-Q-K(yE-x70)-EKRAAFEFIEWLKNTGPSSGAPPPS-NH2] (H-Y[Aib]HGTFTSDLSIQK([γGlu-Stearoyl])EKRAAFEFIEWLKNTGPSSGAPPPS-NH2): the 50% effective concentration (EC50) in test [1] was found to be 0.0335 nM; in test [2], 0.0417 nM; in test [3] it was 0.0192 nM.

In the case of `CCCCCCCCCCCCCCCC(=O)N[C@@H](CCC(=O)NCCCC[C@H](NC(=O)[C@H](CCC(N)=O)NC(=O)[C@H](CCCCN)NC(=O)[C@H](CO)NC(=O)[C@H](CC(C)C)NC(=O)[C@H](CC(=O)O)NC(=O)[C@H](CO)NC(=O)[C@@H](NC(=O)[C@H](Cc1ccccc1)NC(=O)[C@@H](NC(=O)CNC(=O)[C@H](CCC(=O)O)NC(=O)C(C)(C)NC(=O)[C@@H](N)Cc1ccc(O)cc1)[C@@H](C)O)[C@@H](C)O)C(=O)N[C@@H](CC(=O)O)C(=O)N[C@@H](CCCCN)C(=O)N[C@@H](CCCNC(=N)N)C(=O)N[C@@H](C)C(=O)N[C@@H](C)C(=O)N[C@@H](CCC(N)=O)C(=O)N[C@@H](CC(=O)O)C(=O)N[C@@H](Cc1ccccc1)C(=O)N[C@H](C(=O)N[C@@H](CCC(=O)O)C(=O)N[C@@H](Cc1c[nH]c2ccccc12)C(=O)N[C@@H](CC(C)C)C(=O)N[C@@H](CCCCN)C(=O)N[C@@H](C)C(=O)NCC(=O)NCC(=O)N1CCC[C@H]1C(=O)N[C@@H](CO)C(=O)N[C@@H](CO)C(=O)NCC(=O)N[C@@H](C)C(=O)N1CCC[C@H]1C(=O)N1CCC[C@H]1C(=O)N1CCC[C@H]1C(=O)N[C@@H](CO)C(N)=O)[C@@H](C)CC)C(=O)O` [SEQ ID NO: 63, Y-Aib-E-G-T-F-T-S-D-L-S-K-Q-K(yE-x53)-DKRAAQDFIEWLKAGGPSSGAPPPS-NH2] (H-Y[Aib]EGTFTSDLSKQK([γGlu-Palmitoyl])DKRAAQDFIEWLKAGGPSSGAPPPS-NH2), the EC50 in test [1] amounted to 0.0119 nM; in test [2] it was 0.006 nM; in test [3], 1.67 nM.

In the case of `CCCCCCCCCCCCCCCCCC(=O)N[C@@H](CCC(=O)NCCCC[C@H](NC(=O)[C@H](CCC(N)=O)NC(=O)[C@@H](NC(=O)[C@H](CO)NC(=O)[C@H](CC(C)C)NC(=O)[C@H](CC(=O)O)NC(=O)[C@H](CO)NC(=O)[C@@H](NC(=O)[C@H](Cc1ccccc1)NC(=O)[C@@H](NC(=O)CNC(=O)[C@H](CCC(=O)O)NC(=O)C(C)(C)NC(=O)[C@@H](N)Cc1ccc(O)cc1)[C@@H](C)O)[C@@H](C)O)[C@@H](C)CC)C(=O)N[C@@H](CCC(=O)O)C(=O)N[C@@H](CO)C(=O)N[C@@H](CCCCN)C(=O)N[C@@H](C)C(=O)N[C@@H](C)C(=O)NC(C)(C)C(=O)N[C@@H](CCC(=O)O)C(=O)N[C@@H](Cc1ccccc1)C(=O)N[C@H](C(=O)N[C@@H](CCC(=O)O)C(=O)N[C@@H](Cc1c[nH]c2ccccc12)C(=O)N[C@@H](CC(C)C)C(=O)N[C@@H](CCCCN)C(=O)N[C@@H](C)C(=O)NCC(=O)NCC(=O)N1CCC[C@H]1C(=O)N[C@@H](CO)C(=O)N[C@@H](CO)C(=O)NCC(=O)N[C@@H](C)C(=O)N1CCC[C@H]1C(=O)N1CCC[C@H]1C(=O)N1CCC[C@H]1C(=O)N[C@@H](CO)C(N)=O)[C@@H](C)CC)C(=O)O` [SEQ ID NO: 29, Y-Aib-E-G-T-F-T-S-D-L-S-I-Q-K(yE-x70)-E-S-K-A-A-Aib-E-F-I-E-W-L-K-A-G-G-P-S-S-G-A-P-P-P-S-NH2] (H-Y[Aib]EGTFTSDLSIQK([γGlu-Stearoyl])ESKAA[Aib]EFIEWLKAGGPSSGAPPPS-NH2), the EC50 came to 0.013 nM in test [1], 0.0072 nM in test [2] and 15 nM in test [3].

As to `CCCCCCCCCCCCCCCCCC(=O)N[C@@H](CCC(=O)NCCCC[C@H](NC(=O)[C@H](CCC(N)=O)NC(=O)[C@@H](NC(=O)[C@H](CO)NC(=O)[C@H](CC(C)C)NC(=O)[C@H](CC(=O)O)NC(=O)[C@H](CO)NC(=O)[C@@H](NC(=O)[C@H](Cc1ccccc1)NC(=O)[C@@H](NC(=O)CNC(=O)[C@H](CCC(N)=O)NC(=O)C(C)(C)NC(=O)[C@@H](N)Cc1ccc(O)cc1)[C@@H](C)O)[C@@H](C)O)[C@@H](C)CC)C(=O)N[C@@H](CC(=O)O)C(=O)N[C@@H](CCC(=O)O)C(=O)N[C@@H](CCC(N)=O)C(=O)N[C@@H](CCCNC(=N)N)C(=O)N[C@@H](C)C(=O)N[C@@H](CCCCN)C(=O)N[C@@H](CCC(=O)O)C(=O)N[C@@H](Cc1ccccc1)C(=O)N[C@H](C(=O)N[C@@H](CCC(=O)O)C(=O)N[C@@H](Cc1c[nH]c2ccccc12)C(=O)N[C@@H](CC(C)C)C(=O)N[C@@H](CCCCN)C(=O)N[C@@H](C)C(=O)NCC(=O)NCC(=O)N1CCC[C@H]1C(=O)N[C@@H](CO)C(=O)N[C@@H](CO)C(=O)NCC(=O)N[C@@H](C)C(=O)N1CCC[C@H]1C(=O)N1CCC[C@H]1C(=O)N1CCC[C@H]1C(=O)N[C@@H](CO)C(N)=O)[C@@H](C)CC)C(=O)O` [SEQ ID NO: 31, Y-Aib-Q-G-T-F-T-S-D-L-S-I-Q-K(yE-x70)-DEQRAKEFIEWLKAGGPSSGAPPPS-NH2], the 50% effective concentration (EC50) amounted to 0.0131 nM in test [1], 0.0148 nM in test [2] and 0.0041 nM in test [3].

As for `CCCCCCCCCCCCCCCC(=O)N[C@@H](CCC(=O)NCCCC[C@H](NC(=O)[C@H](CCC(N)=O)NC(=O)[C@@H](NC(=O)[C@H](CO)NC(=O)[C@H](CC(C)C)NC(=O)[C@H](CC(=O)O)NC(=O)[C@H](CO)NC(=O)[C@@H](NC(=O)[C@H](Cc1ccccc1)NC(=O)[C@@H](NC(=O)CNC(=O)[C@H](CCC(N)=O)NC(=O)C(C)(C)NC(=O)[C@@H](N)Cc1ccc(O)cc1)[C@@H](C)O)[C@@H](C)O)[C@@H](C)CC)C(=O)N[C@@H](CC(=O)O)C(=O)N[C@@H](CO)C(=O)N[C@@H](CCCNC(=N)N)C(=O)N[C@@H](C)C(=O)N[C@@H](CCC(N)=O)C(=O)N[C@@H](CCC(N)=O)C(=O)N[C@@H](CC(=O)O)C(=O)N[C@@H](Cc1ccccc1)C(=O)N[C@H](C(=O)N[C@@H](CCC(=O)O)C(=O)N[C@@H](Cc1c[nH]c2ccccc12)C(=O)N[C@@H](CC(C)C)C(=O)N[C@@H](CCCCN)C(=O)N[C@@H](C)C(=O)NCC(=O)NCC(=O)N1CCC[C@H]1C(=O)N[C@@H](CO)C(=O)N[C@@H](CO)C(=O)NCC(=O)N[C@@H](C)C(=O)N1CCC[C@H]1C(=O)N1CCC[C@H]1C(=O)N1CCC[C@H]1C(=O)N[C@@H](CO)C(N)=O)[C@@H](C)CC)C(=O)O` [SEQ ID NO: 51, Y-Aib-Q-G-T-F-T-S-D-L-S-I-Q-K(yE-x53)-DSRAQQDFIEWLKAGGPSSGAPPPS-NH2] (H-Y[Aib]QGTFTSDLSIQK([γGlu-Palmitoyl])DSRAQQDFIEWLKAGGPSSGAPPPS-NH2), the concentration for a half-maximal effect (EC50) in test [1] was determined as 0.0063 nM; in test [2], 0.0042 nM; in test [3], 0.571 nM.
